Reference: patent US20260216238A1, “TETRATHIOMOLYBDIC ACID FOR USE IN TREATING COPPER METABOLISM-ASSOCIATED DISEASES OR DISORDERS (WILSON DISEASE)” (Alexion Pharmaceuticals, Inc., priority 2023, published 2026)

Tested on: patients with Wilson disease (WD)
Assay: UWDRS Part III total score, functional subscale and individual items (neurological examination)
Assay type: in vivo, human
Conditions: for UWDRS Part III (0-175) change from baseline, Mean (SD) / UWDRS Part III Functional Subscale (0-10) change from baseline, Mean (SD): pooled Studies 301 and 201
Procedure: The UWDRS scoring system was developed specifically for the motor and movement disorders associated with chronic copper neurotoxicity in WD. Some individual items/subscales of the UWDRS Part III (arising from a chair, gait, handwriting, and speech) in addition to the UWDRS Parts I, II, and III overall, were assessed to further define the range of burdensome signs and symptoms of WD, so as to further understand the assessment of treatment effects on patients with WD. The UWDRS scores for consciousness (Part I) and abnormal neurologic examination findings (Part III) will be determined by a trained neurologist rater who is blinded to study treatment randomization. These scores were used to provide a rigorous dataset for evaluating changes from baseline.
Unified Wilson Disease Rating Scale (Parts I, II, and III): The UWDRS is a clinical rating scale designed to evaluate the neurological manifestations of WD that generally can be divided into 3 movement disorder syndromes: dystonic, ataxic, and Parkinsonian syndrome. The UWDRS comprises 3 parts: UWDRS Part I (level of consciousness, item 1), UWDRS Part II (a patient-reported review of daily activity items [disability], items 2 to 11), and UWDRS Part III (a detailed neurological examination, items 12 to 34).
The UWDRS Part I and Part III were assessed by a neurologist who is blinded to the treatment randomization, while UWDRS Part II may be reported to a non-blinded member of the study team by the patient, family member, or caregiver. The UWDRS has not been formally evaluated in adolescents. However, the components of Part I (level of consciousness), Part II (patient or caregiver-reported disability) and Part III (neurologic examination findings) were not fundamentally different between adults and adolescents. Patients aged 12 years and older were expected to be able to comply with UWDRS assessments.
Pooled results from all such participants will be integrated together into one timeline to allow analyses of changes in UWDRS, long-term copper control, and long-term safety laboratory data.
Endpoints (directly measured non-ceruloplasmin-bound copper [dNCC], UWDRS III (rater blinded) total and individual item scores, Clinical Global Impression-Improvement [CGI-I]) were evaluated at baseline (BL) and Week 48 (W48). Normalization (score decrease to 0), improvement (≥1 point decrease), stability (no change), or worsening (≥1 point increase) of total and individual UWDRS III item scores were evaluated at W48.

[1] = Subpopulation E (incomplete or intolerant responders), Week 48, MMRM
[2] = Subpopulation E (incomplete or intolerant responders), Week 48, TTM N=79, SoC N=38

bis-choline tetrathiomolybdate [TTM]
UWDRS Part III score change (mean) (0-48W, symptomatic patients): −2.91
UWDRS symptom: Arising from chair (BL): 85
UWDRS symptom: Arm and hand Dystonia (BL): 64
UWDRS symptom: Cervical Dystonia (BL): 74
UWDRS symptom: Chorea (BL): 90
UWDRS symptom: Facial Expression (BL): 57
UWDRS symptom: Finger Taps (BL): 44
UWDRS symptom: Finger to Nose (BL): 67
UWDRS symptom: Gait (BL): 59
UWDRS symptom: Handwriting (BL): 55
UWDRS symptom: Head Tremor (BL): 84
UWDRS symptom: Involuntary Crying (BL): 99
UWDRS symptom: Jaw Tremor (BL): 99
UWDRS symptom: Leg Ability (BL): 62
UWDRS symptom: Oculomotor (BL): 89
UWDRS symptom: Postural Arm Tremor (BL): 49
UWDRS symptom: Postural Leg Tremor (BL): 68
UWDRS symptom: Posture (BL): 67
UWDRS symptom: Pyramidal Signs (BL): 89
UWDRS symptom: RAM of Hands (BL): 48
UWDRS symptom: Rigidity (BL): 58
UWDRS symptom: Speech (BL): 44
UWDRS symptom: Stereotyped Actions (BL): 93
UWDRS symptom: Tremor at rest (BL): 75
UWDRS symptom: Wing-beating tremor (BL): 64
UWDRS-III, observed value, Mean (SD) (Baseline, N=220): 15.43 (19.833)
UWDRS Part III (0-175), Change from Baseline at 48 weeks, LSM (Study 301 Full Analysis Set): −0.60
UWDRS Part III (0-175), Change from Baseline at 48 weeks, Mean (Study 301 Full Analysis Set): −2.20
UWDRS Part III functional subscale (0-10), Change from Baseline at 48 weeks, LSM (Study 301 Full Analysis Set): 0.001
UWDRS Part III functional subscale (0-10), Change from Baseline at 48 weeks, Mean (Study 301 Full Analysis Set): −0.147
UWDRS Part III-arising from chair (0-4), Change from Baseline at 48 weeks, LSM (Study 301 Full Analysis Set): 0.0
UWDRS Part III-arising from chair (0-4), Change from Baseline at 48 weeks, Mean (Study 301 Full Analysis Set): 0.0
UWDRS Part III-gait (0-10), Change from Baseline at 48 weeks, LSM (Study 301 Full Analysis Set): 0.06
UWDRS Part III-gait (0-10), Change from Baseline at 48 weeks, Mean (Study 301 Full Analysis Set): −0.06
UWDRS Part III-handwriting (0-4), Change from Baseline at 48 weeks, LSM (Study 301 Full Analysis Set): −0.1
UWDRS Part III-handwriting (0-4), Change from Baseline at 48 weeks, Mean (Study 301 Full Analysis Set): −0.1
UWDRS Part III-speech (0-4), Change from Baseline at 48 weeks, LSM (Study 301 Full Analysis Set): 0.0
UWDRS Part III-speech (0-4), Change from Baseline at 48 weeks, Mean (Study 301 Full Analysis Set): −0.1
UWDRS Part III change from baseline, LSM [1]: −2.52
UWDRS Part III change from baseline, LSM Diff (TTM vs SoC) [1]: −0.53
UWDRS Part III change from baseline, Mean [2]: −2.64
UWDRS Part III change from baseline, Median [2]: −1.00
UWDRS Part III, Change from Baseline, Max [2]: 31.0
UWDRS Part III, Change from Baseline, Min [2]: −28.0,
UWDRS Part III, Change from Baseline, Q1 [2]: −6.00,
UWDRS Part III, Change from Baseline, Q3 [2]: 0.00
UWDRS-III change from baseline, Mean (SD) (TTM exposure 4 weeks, N=215): −0.72 (6.701)
UWDRS Part III (0-175) change from baseline, Mean (SD) (TTM exposure 4 weeks): −0.72 (6.701)
UWDRS Part III Functional Subscale (0-10) change from baseline, Mean (SD) (TTM exposure 4 weeks): −0.072 (0.6009)
UWDRS-III change from baseline, Mean (SD) (TTM exposure 12 weeks, N=204): −1.11 (7.065)
UWDRS Part III (0-175) change from baseline, Mean (SD) (TTM exposure 12 weeks): −1.11 (7.065)
UWDRS Part III Functional Subscale (0-10) change from baseline, Mean (SD) (TTM exposure 12 weeks): −0.137 (0.7864)
UWDRS-III change from baseline, Mean (SD) (TTM exposure 24 weeks, N=182): −0.97 (8.447)
UWDRS Part III (0-175) change from baseline, Mean (SD) (TTM exposure 24 weeks): −0.97 (8.447)
UWDRS Part III Functional Subscale (0-10) change from baseline, Mean (SD) (TTM exposure 24 weeks): −0.157 (0.9091)
UWDRS-III change from baseline, Mean (SD) (TTM exposure 36 weeks, N=156): −2.38 (8.581)
UWDRS Part III (0-175) change from baseline, Mean (SD) (TTM exposure 36 weeks): −2.38 (8.581)
UWDRS Part III Functional Subscale (0-10) change from baseline, Mean (SD) (TTM exposure 36 weeks): −0.286 (0.9929)
UWDRS-III change from baseline, Mean (SD) (TTM exposure 48 weeks, N=156): −3.37 (9.778)
UWDRS Part III (0-175) change from baseline, Mean (SD) (TTM exposure 48 weeks): −3.37 (9.778)
UWDRS Part III Functional Subscale (0-10) change from baseline, Mean (SD) (TTM exposure 48 weeks): −0.345 (1.0940)
UWDRS-III change from baseline, Mean (SD) (TTM exposure 60 weeks, N=141): −2.00 (6.40)
UWDRS Part III (0-175) change from baseline, Mean (SD) (TTM exposure 60 weeks): −2.00 (6.40)
UWDRS Part III Functional Subscale (0-10) change from baseline, Mean (SD) (TTM exposure 60 weeks): −0.422 (1.0814)
UWDRS-III change from baseline, Mean (SD) (TTM exposure 72 weeks, N=125): −4.93 (11.682)
UWDRS Part III (0-175) change from baseline, Mean (SD) (TTM exposure 72 weeks): −4.93 (11.682)
UWDRS Part III Functional Subscale (0-10) change from baseline, Mean (SD) (TTM exposure 72 weeks): −0.494 (1.2826)
UWDRS-III change from baseline, Mean (SD) (TTM exposure 96 weeks, N=66): −7.95 (14.078)
UWDRS Part III (0-175) change from baseline, Mean (SD) (TTM exposure 96 weeks): −7.95 (14.078)
UWDRS Part III Functional Subscale (0-10) change from baseline, Mean (SD) (TTM exposure 96 weeks): −0.900 (1.5193)
UWDRS-III change from baseline, Mean (SD) (TTM exposure 120 weeks, N=50): −8.92 (15.045)
UWDRS Part III (0-175) change from baseline, Mean (SD) (TTM exposure 120 weeks): −8.92 (15.045)
UWDRS Part III Functional Subscale (0-10) change from baseline, Mean (SD) (TTM exposure 120 weeks): −0.946 (1.7746)
UWDRS-III change from baseline, Mean (SD) (TTM exposure 144 weeks, N=42): −9.78 (15.423)
UWDRS Part III (0-175) change from baseline, Mean (SD) (TTM exposure 144 weeks): −9.78 (15.423)
